From ChEMBL document CHEMBL4265938, “Donepezil-based multi-functional cholinesterase inhibitors for treatment of Alzheimer's disease” (Eur J Med Chem, 2018)

How the values were obtained:
Acetylcholinesterase [1] = molecular target: T1, Acetylcholinesterase (Homo sapiens, UniProt P22303); experiment: Inhibition of recombinant human AChE using acetylthiocholine iodide as substrate preincubated for 20 mins followed by substrate addition measured after 5 mins by Ellman's method
Acetylcholinesterase [2] = molecular target: T2, Acetylcholinesterase (Electrophorus electricus, UniProt O42275); experiment: Inhibition of electric eel AChE using acetylthiocholine iodide as substrate preincubated for 20 mins followed by substrate addition measured after 5 mins by Ellman's method
T2 sequence (O42275 whole entry): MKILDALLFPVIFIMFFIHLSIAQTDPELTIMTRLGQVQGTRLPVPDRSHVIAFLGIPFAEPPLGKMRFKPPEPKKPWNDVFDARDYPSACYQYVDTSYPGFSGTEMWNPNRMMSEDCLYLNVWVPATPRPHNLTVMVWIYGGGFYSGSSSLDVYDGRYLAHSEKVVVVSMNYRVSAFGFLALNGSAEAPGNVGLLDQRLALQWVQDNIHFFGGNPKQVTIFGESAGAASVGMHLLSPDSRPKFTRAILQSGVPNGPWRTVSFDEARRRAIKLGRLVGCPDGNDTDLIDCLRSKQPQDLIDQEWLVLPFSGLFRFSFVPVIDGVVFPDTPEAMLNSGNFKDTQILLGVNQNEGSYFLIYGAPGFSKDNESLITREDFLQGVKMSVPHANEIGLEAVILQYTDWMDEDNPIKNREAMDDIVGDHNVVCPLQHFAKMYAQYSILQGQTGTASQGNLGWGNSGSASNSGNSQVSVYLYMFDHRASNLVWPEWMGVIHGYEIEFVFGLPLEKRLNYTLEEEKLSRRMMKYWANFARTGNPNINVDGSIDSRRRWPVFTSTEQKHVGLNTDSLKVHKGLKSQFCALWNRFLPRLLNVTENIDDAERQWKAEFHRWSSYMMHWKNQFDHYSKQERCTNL

Cholinesterase [3] = molecular target: T3, Cholinesterase (Equus caballus, UniProt P81908); experiment: Inhibition of equine serum BuChE using butyrylthiocholine iodide as substrate preincubated for 20 mins followed by substrate addition measured after 30 mins by Ellman's method
T3 sequence (P81908 whole entry): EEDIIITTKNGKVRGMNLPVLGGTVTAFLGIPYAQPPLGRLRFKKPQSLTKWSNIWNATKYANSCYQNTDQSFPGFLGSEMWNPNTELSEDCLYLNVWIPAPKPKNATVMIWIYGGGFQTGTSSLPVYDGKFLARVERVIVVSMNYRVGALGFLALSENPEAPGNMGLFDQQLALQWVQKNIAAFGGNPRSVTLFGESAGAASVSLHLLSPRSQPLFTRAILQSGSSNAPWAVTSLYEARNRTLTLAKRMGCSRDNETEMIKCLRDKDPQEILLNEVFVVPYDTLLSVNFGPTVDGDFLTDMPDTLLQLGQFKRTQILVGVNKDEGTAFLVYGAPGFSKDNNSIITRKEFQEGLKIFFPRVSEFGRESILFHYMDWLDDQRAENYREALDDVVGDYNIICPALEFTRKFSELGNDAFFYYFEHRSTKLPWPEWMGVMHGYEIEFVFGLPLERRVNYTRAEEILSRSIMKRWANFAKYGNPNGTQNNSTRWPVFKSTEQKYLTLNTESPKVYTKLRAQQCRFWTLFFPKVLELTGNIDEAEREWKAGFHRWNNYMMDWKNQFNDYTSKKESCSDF

[4] = molecular target: T4, Amine oxidase [flavin-containing] B (Homo sapiens, UniProt P27338); experiment: Inhibition of recombinant human MAOB using tyramine hydrochloride as substrate preincubated for 30 mins followed by substrate addition measured for 1 hr by fluorometric method
T4 sequence (P27338 whole entry): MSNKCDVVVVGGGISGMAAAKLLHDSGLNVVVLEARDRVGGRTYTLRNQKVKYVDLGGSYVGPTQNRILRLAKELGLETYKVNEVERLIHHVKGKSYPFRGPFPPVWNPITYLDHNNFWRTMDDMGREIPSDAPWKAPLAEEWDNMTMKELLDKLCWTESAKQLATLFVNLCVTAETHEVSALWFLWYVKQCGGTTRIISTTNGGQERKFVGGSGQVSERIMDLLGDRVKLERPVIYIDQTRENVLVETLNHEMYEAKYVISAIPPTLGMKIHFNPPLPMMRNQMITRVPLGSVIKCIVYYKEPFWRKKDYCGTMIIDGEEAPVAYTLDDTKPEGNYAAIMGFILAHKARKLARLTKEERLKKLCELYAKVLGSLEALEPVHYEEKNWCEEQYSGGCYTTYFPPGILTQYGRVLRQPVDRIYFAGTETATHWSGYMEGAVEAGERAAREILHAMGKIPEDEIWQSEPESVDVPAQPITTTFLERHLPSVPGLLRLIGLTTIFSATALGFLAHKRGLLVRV

[5] = Antioxidant activity assessed as trolox equivalent of AAPH-induced radical scavenging activity at 70 nM preincubated for 15 mins followed by AAPH addition measured every min for 80 mins by ORAC-FL assay; format: functional
Cholinesterase [6] = molecular target: T3, Cholinesterase; experiment: Inhibition of equine serum BuChE
Acetylcholinesterase [7] = molecular target: T2, Acetylcholinesterase; experiment: Inhibition of electric eel AChE
Beta-secretase 1 = Beta-secretase 1 (Homo sapiens, UniProt P56817); experiment: Inhibition of BACE-1 (unknown origin)
Chain of Beta-secretase 1 (P56817 whole entry): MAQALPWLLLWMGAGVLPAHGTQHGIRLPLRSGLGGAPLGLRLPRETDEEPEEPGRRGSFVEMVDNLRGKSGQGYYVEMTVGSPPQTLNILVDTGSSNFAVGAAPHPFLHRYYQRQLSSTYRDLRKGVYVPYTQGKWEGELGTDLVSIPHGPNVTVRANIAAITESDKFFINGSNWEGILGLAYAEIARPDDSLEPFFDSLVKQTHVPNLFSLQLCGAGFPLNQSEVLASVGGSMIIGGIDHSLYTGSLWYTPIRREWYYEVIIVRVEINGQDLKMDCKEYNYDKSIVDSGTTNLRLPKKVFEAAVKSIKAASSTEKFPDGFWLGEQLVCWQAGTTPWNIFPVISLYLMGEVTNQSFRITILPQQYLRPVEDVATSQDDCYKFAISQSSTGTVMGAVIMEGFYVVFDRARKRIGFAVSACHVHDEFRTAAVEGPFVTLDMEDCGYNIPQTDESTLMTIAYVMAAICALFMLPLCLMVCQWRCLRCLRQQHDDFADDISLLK

Acetylcholinesterase [8] = molecular target: T2, Acetylcholinesterase; experiment: Inhibition of electric eel AChE using acetylthiocholine iodide as substrate preincubated for 5 mins followed by substrate addition measured after 5 mins by Ellman's method
[9] = molecular target: Amyloid-beta precursor protein (Homo sapiens) (UniProt P05067); experiment: Inhibition of recombinant human HFIP-pretreated amyloid beta (1 to 42) self aggregation at 10 uM after 24 hrs by ThT-based fluorometric method relative to control
Chain of Amyloid-beta precursor protein (Homo sapiens) (P05067 whole entry): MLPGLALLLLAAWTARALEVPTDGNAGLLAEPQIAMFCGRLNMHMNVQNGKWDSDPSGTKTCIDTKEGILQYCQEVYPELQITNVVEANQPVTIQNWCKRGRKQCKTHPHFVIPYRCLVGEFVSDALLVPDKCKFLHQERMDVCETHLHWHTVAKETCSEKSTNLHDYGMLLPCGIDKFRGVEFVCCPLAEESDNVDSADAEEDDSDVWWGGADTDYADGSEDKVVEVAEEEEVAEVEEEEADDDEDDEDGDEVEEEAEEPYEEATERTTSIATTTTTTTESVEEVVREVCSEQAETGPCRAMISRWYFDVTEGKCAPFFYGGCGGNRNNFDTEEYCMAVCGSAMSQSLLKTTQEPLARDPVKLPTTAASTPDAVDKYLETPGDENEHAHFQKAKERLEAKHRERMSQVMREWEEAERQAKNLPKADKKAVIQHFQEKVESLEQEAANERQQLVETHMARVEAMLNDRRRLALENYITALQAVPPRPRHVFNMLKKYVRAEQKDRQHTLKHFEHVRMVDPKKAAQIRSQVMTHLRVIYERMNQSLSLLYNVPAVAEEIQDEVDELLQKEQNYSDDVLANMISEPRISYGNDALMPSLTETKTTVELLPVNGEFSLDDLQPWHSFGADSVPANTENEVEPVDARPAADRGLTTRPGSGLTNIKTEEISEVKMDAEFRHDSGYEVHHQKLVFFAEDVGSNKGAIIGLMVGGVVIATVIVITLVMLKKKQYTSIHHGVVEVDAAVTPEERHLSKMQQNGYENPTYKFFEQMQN

Acetylcholinesterase [10] = molecular target: T1, Acetylcholinesterase; experiment: Inhibition of recombinant human AChE using acetylthiocholine iodide as substrate preincubated for 5 mins followed by substrate addition measured after 5 mins by Ellman's method
[11] = molecular target: T5, Amine oxidase [flavin-containing] A (Homo sapiens, UniProt P21397); experiment: Inhibition of human MAOA
T5 sequence (P21397 whole entry): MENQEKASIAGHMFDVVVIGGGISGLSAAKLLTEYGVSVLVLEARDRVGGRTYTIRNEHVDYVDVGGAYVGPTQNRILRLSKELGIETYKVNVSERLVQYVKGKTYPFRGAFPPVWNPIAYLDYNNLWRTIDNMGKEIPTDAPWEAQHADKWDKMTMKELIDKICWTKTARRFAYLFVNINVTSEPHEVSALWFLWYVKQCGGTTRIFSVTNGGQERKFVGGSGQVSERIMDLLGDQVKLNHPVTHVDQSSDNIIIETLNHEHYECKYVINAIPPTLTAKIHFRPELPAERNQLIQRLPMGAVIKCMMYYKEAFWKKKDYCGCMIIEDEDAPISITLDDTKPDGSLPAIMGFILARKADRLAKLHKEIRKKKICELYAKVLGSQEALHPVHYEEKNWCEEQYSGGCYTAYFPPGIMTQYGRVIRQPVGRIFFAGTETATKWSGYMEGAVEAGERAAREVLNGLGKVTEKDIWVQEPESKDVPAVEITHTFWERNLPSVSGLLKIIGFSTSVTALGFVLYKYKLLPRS

[12] = Effective permeability of the compound; format: ADME; conditions: not told; read-out: Peff
[13] = molecular target: T4, Amine oxidase [flavin-containing] B; experiment: Inhibition of human MAOB
[14] = Selectivity ratio of IC50 for electric eel AChE to IC50 for equine serum BuChE
Cholinesterase [15] = molecular target: T3, Cholinesterase; experiment: Mixed type inhibition of equine serum BuChE
Acetylcholinesterase [16] = molecular target: T2, Acetylcholinesterase; experiment: Mixed type inhibition of electric eel AChE

T1 sequence (P22303 whole entry): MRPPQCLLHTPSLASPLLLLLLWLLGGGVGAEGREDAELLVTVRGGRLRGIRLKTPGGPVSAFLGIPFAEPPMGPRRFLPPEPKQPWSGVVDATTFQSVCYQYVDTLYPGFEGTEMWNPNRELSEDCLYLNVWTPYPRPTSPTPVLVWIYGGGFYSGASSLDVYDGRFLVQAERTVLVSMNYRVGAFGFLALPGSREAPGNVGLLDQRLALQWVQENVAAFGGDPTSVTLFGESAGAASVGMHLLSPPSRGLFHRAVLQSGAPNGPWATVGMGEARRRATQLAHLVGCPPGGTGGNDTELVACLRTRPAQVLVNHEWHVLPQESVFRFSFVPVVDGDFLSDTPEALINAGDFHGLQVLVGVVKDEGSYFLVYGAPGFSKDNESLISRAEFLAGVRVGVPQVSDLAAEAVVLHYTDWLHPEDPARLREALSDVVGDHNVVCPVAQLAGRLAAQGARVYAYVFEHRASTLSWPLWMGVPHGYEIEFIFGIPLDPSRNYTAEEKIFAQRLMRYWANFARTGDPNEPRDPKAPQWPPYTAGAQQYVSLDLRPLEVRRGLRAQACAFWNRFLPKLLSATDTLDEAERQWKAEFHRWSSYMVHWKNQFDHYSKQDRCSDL

In the case of `C#CCNc1nc(NCCCCC2CCN(Cc3ccccc3)CC2)c(C#N)cc1C#N`, the IC50 (Acetylcholinesterase [1]) is reported as 1 nM.

In the case of `C#CCNc1nc(NCCCC2CCN(Cc3ccccc3)CC2)c(C#N)cc1C#N`, the IC50 (Acetylcholinesterase [2]) is reported as 1.1 nM, the IC50 (Cholinesterase [3]) is reported as 600 nM and the IC50 [4] is reported as 3950 nM.

Work on `COc1cc(/C=C/C(=O)N(CCCC2CCN(Cc3ccccc3)CC2)CC(=O)Nc2c(C)cccc2Cl)ccc1O` yielded an Activity [5] of 5.32 equiv, an IC50 (Cholinesterase [6]) of 52.3 nM and an IC50 (Acetylcholinesterase [7]) of 29.3 nM.

In the case of `COc1cc2c(cc1OC)C(=O)/C(=C/C1CCN(Cc3ccccc3)CC1)C2`, the IC50 (Beta-secretase 1) is reported as 697 nM.

For `CN(CCCCCN1C(=O)c2ccccc2S1(=O)=O)Cc1ccccc1`, the IC50 (Acetylcholinesterase [8]) was 36 nM, the inhibition [9] was 22.2% and the IC50 (Acetylcholinesterase [10]) was 33 nM.

With `O=C(NCCC1CCN(Cc2ccccc2)CC1)c1ccc(Cl)cn1` the IC50 [11] was 13400 nM, the IC50 (Cholinesterase [6]) was 1230 nM and the IC50 (Acetylcholinesterase [7]) was 220 nM. For the same compound, the Papp [12] was 10.4 ×10⁻⁶ cm/s and the IC50 [13] was 3140 nM.

`COc1ccc2c(c1)C/C(=C\C1CCN(Cc3ccccc3)CC1)C2=O` showed an IC50 (Beta-secretase 1) of 333 nM.

Work on `Cn1c(=O)n(C)c2cc(S(=O)(=O)NCC3CCN(Cc4ccc(F)cc4)CC3)ccc21` yielded a Ratio IC50 [14] of 66.1, an IC50 (Cholinesterase [15]) of 31 nM and an IC50 (Acetylcholinesterase [16]) of 2050 nM.
